pKi: −log10 of the molar value.
Tests used:
[1] = target: Serotonin 2 (5-HT2) receptor (Homo sapiens, UniProt P41595+P28223+P28335); experiment: In vitro binding affinity of compound against neuronal 5-hydroxytryptamine 2 receptor; format: protein assay
[2] = target: T1, Adrenergic receptor alpha-1 (Homo sapiens, UniProt P35348+P25100+P35368); experiment: In vitro binding affinity of compound against Alpha-1 adrenergic receptor; format: protein assay
T1 sequence (P35348 whole entry): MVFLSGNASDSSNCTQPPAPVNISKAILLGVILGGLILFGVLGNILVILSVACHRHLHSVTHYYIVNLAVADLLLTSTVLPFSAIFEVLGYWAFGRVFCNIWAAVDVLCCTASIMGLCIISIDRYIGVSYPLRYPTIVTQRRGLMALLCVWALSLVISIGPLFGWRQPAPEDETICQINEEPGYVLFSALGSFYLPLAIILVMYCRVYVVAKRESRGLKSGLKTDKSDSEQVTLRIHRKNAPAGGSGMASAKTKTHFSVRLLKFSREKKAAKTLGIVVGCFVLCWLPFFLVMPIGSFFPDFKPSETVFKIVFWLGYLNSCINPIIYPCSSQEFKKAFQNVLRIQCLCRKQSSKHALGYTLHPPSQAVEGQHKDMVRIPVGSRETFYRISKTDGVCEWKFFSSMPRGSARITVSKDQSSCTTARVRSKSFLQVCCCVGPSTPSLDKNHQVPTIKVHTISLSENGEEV
T1 sequence (P25100 whole entry): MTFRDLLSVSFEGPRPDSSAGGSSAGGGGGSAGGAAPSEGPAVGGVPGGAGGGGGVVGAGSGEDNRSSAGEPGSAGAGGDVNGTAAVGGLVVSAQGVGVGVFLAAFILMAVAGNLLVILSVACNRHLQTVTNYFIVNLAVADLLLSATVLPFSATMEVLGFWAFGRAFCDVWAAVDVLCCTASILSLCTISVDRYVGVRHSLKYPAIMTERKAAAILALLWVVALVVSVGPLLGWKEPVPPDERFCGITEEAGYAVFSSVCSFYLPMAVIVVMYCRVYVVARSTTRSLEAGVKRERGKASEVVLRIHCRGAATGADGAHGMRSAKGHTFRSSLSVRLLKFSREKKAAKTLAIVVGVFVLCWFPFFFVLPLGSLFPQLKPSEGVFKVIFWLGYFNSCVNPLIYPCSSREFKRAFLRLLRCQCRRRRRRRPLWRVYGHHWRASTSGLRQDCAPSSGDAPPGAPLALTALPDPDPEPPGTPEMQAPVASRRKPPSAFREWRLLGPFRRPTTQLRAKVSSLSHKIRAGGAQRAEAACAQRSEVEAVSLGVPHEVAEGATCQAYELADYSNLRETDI
T1 sequence (P35368 whole entry): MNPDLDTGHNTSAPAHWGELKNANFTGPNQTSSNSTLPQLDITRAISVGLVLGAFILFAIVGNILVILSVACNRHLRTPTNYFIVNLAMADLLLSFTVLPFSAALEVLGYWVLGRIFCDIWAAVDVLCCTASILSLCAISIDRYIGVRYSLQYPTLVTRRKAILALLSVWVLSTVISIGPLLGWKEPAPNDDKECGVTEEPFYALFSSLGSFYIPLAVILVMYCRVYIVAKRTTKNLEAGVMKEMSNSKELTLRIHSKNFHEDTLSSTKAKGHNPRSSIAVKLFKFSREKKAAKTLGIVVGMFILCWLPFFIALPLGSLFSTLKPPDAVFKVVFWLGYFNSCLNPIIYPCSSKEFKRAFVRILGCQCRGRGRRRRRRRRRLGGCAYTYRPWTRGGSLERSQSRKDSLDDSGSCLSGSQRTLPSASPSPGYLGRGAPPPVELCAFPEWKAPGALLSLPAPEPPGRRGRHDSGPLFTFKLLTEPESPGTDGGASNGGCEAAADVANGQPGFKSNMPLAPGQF

[3] = target: Adrenergic receptor beta (Homo sapiens, UniProt P08588+P07550+P13945); experiment: In vitro binding affinity of compound against neuronal Beta adrenergic receptor; format: protein assay
[4] = target: D(2) dopamine receptor (Homo sapiens, UniProt P14416); experiment: In vitro binding affinity of compound against neuronal Dopamine receptor D2
Chain of D(2) dopamine receptor (P14416 whole entry): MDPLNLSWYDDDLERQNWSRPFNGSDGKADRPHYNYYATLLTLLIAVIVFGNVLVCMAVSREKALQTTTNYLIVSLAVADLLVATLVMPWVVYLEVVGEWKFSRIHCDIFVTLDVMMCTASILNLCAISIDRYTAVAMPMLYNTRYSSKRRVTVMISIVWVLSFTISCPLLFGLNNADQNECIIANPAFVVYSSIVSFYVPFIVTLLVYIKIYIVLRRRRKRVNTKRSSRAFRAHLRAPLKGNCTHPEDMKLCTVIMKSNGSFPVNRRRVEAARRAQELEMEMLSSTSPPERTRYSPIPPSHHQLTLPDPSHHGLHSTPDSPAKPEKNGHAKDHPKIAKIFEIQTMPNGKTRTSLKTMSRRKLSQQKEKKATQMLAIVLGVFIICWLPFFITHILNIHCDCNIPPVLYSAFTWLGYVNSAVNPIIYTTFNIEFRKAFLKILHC

[5] = target: D(1A) dopamine receptor (Homo sapiens, UniProt P21728); experiment: In vitro binding affinity of compound against dopamine neuronal Dopamine receptor D1
Chain of D(1A) dopamine receptor (P21728 whole entry): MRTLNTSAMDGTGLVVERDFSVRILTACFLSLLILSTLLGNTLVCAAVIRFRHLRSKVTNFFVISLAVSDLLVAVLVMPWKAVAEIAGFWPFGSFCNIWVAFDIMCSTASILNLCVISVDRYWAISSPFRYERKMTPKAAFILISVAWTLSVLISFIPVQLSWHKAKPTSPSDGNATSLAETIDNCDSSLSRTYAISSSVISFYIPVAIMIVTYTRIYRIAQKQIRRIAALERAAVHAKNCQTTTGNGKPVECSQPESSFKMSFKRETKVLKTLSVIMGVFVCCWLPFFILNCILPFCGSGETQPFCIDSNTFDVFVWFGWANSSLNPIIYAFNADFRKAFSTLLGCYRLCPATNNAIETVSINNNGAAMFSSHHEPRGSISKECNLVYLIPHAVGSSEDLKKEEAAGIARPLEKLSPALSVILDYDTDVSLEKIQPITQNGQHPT

[6] = target: GABA-A receptor; anion channel; experiment: In vitro binding affinity for neuronal GABA-A receptor; format: protein-complex assay
[7] = target: Histamine H1 receptor (Homo sapiens, UniProt P35367); experiment: In vitro binding affinity of compound against histamine H1 neuronal receptor
Chain of Histamine H1 receptor (P35367 whole entry): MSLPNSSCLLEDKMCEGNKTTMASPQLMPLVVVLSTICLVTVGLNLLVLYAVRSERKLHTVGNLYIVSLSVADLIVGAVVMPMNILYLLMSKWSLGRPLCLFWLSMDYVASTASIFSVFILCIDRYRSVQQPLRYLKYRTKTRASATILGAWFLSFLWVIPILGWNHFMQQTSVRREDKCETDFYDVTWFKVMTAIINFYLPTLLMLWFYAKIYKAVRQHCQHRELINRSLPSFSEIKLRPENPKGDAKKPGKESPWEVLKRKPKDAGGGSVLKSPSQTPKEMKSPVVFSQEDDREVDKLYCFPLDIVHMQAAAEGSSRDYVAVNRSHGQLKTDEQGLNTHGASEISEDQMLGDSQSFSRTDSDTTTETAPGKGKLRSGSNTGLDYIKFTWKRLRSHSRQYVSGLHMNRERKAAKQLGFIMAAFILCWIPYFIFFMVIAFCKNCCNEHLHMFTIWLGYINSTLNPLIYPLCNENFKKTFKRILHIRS

[8] = tested on: Mus musculus; experiment: In vivo minimum effective dose of compound to block the apomorphine-induced climbing behavior in mice after peroral administration; format: functional
[9] = target: Muscarinic acetylcholine receptor; experiment: In vitro binding affinity of compound against muscarinic neuronal receptor; format: protein assay
[10] = target: T2, Adrenergic receptor alpha-2 (Homo sapiens, UniProt P08913+P18825+P18089); experiment: In vitro binding affinity of compound against neuronal alpha-2 adrenergic receptor; format: protein assay
T2 sequence (P08913 whole entry): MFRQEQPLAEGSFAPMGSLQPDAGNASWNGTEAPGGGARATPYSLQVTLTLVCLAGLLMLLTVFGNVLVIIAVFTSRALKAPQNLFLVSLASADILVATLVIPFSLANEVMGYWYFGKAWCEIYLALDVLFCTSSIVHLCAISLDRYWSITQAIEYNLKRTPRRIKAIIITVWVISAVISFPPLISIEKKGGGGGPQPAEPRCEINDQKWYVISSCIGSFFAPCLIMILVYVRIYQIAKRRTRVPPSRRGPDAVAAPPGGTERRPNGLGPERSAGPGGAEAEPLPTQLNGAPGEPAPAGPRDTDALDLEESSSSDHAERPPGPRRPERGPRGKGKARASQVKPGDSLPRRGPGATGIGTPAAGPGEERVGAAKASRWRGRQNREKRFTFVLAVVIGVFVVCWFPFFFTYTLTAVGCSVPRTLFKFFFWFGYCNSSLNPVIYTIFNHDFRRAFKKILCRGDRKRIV
T2 sequence (P18825 whole entry): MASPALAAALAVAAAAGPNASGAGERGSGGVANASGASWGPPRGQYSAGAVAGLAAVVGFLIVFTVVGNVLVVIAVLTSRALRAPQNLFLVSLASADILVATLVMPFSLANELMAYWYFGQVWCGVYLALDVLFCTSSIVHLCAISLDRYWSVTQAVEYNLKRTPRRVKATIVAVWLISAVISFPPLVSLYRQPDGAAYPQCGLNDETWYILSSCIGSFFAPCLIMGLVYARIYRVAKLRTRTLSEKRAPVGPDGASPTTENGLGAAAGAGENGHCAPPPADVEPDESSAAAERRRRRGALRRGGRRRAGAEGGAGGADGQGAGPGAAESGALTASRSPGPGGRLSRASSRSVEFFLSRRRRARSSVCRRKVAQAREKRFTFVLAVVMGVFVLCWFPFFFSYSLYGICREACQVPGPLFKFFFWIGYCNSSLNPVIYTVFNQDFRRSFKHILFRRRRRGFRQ
T2 sequence (P18089 whole entry): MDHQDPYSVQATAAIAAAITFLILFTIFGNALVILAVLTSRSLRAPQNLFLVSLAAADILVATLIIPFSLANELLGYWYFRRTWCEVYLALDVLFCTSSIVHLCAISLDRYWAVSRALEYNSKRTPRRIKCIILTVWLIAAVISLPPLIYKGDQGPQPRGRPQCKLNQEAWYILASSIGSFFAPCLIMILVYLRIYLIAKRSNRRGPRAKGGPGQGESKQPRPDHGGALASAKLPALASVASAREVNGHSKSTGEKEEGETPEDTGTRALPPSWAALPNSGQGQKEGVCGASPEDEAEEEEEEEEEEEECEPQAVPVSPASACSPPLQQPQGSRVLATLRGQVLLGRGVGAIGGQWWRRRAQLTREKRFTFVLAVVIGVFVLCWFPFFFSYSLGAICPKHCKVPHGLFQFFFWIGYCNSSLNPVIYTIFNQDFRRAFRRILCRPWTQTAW

[11] = target: GABA-A receptor; anion channel; experiment: In vitro binding affinity for neuronal GABA-A benzodiazepine receptor; format: protein-complex assay
[12] = tested on: Mus musculus; experiment: In vivo minimum effective dose of compound to block the apomorphine-induced climbing behavior in mice after intravenous administration; format: functional
[13] = tested on: Mus musculus; experiment: In vivo minimum effective dose of compound to block the apomorphine-induced climbing behavior in mice after subcutaneous administration; format: functional
[14] = tested on: Rattus norvegicus; experiment: In vivo minimum effective dose of compound to block the conditioned avoidance behavior in rats after intravenous administration; format: functional
[15] = tested on: Rattus norvegicus; experiment: In vivo minimum effective dose of compound to block the conditioned avoidance behavior in rats after peroral administration; format: functional

SMILES | Ki [1] [µM] | Ki [2] [µM] | Ki [3] [µM] | pKi [4] | pKi [5] | pKi [6] | pKi [7] | EDmin [8] [mg/kg] | Ki [9] [µM] | Ki [10] [µM] | pKi [11] | EDmin [12] [mg/kg] | EDmin [13] [mg/kg] | EDmin [14] [mg/kg] | EDmin [15] [mg/kg]
CN1CCN(C2=Nc3ccccc3Nc3sc(CO)cc32)CC1 | 0.018 | 0.012 | > 10 | 7.66 | 7.18 | < 5.00 | 8.22 | 20 | 0.501 | 0.783 | < 6.00 | – | – | – | –
Cc1cc2c(s1)Nc1ccccc1N=C2N1CC[N+](C)([O-])CC1 | 0.112 | 0.266 | > 10 | 6.92 | 6.40 | < 5.00 | 7.06 | – | 0.662 | > 10 | < 5.00 | >10 | 12.5 | >4 | >25
Cc1cc2c(s1)Nc1ccccc1N=C2N1CCNCC1 [DESMETHYLOLANZAPINE] | 0.023 | 0.08 | > 10 | 8.05 | 6.69 | < 5.00 | 7.66 | – | 0.333 | 1 | < 5.00 | >10 | 50 | >4 | >25
Cc1cc2c(s1)Nc1ccccc1N=C2N1CCN(C)CC1 [OLANZAPINE] | – | – | – | – | – | < 5.00 | – | 2.5 | – | – | < 5.00 | 1 | 0.625 | 0.25 | 2.5
